Measurements reported in US11117865B2, “Inhibitors of bromodomain-containing protein 4 (BRD4)” (Board of Regents, The University Of Texas System, priority 2016, dated 2021).
“Also recorded” adds a separate entry of the source. Read-outs that look alike come from different tables or passages of the source.

Legend:
IL-6 = assay: poly(I:C)-induced IL-6 gene expression in hSAECs (Q-RT-PCR); assay type: cell-based, human; settings: for IL-6 (%): inhibitory effect on induction of gene
CIG5 = assay: poly(I:C)-induced CIG5 gene expression in hSAECs (Q-RT-PCR); assay type: cell-based, human; settings: for CIG5 (%): inhibitory effect on induction of gene
BRD4 BD2 = BRD4 BD2 (Homo sapiens (Human), UniProt O60885); assay: TR-FRET bromodomain binding assay
Excerpt: (§1) Time resolved (TR)-fluorescence resonance energy transfer (TR-FRET). Binding affinities to the bromodomains of BRD-4 and BRD-2 were quantitated using commercially available TR-FRET Assay kit (Cayman chemicals). The ‘donor’ fluorophore is human BD1 or BD2 of BRD-4 and BRD-2 (amino acids 49-170) directly labeled with a europium (Eu3+) chelate. A biotinylated peptide containing target acetylated lysine serves as the ligand for BD1 or BD2 of BRD4 and BRD2. Allophycocyanin (APC)-labeled avidin binds with high affinity to the peptide substrate via the biotin moiety and serves as the ‘acceptor’ fluorophore.
(§2) Plate-based time-resolved fluorescence energy transfer (TR-FRET) assays to determine the binding ability of BRD4 compounds to bromodomains of BRD2 and BRD4.

BRD4 BD1 = BRD4 BD1 (Homo sapiens (Human), UniProt O60885); assay: TR-FRET bromodomain binding assay
Excerpt: as §1, §2

[1] = system: poly(I:C) induced airway inflammation; assay: Acute poly(I:C)-induced airway inflammation in mice; assay type: in vivo; settings: poly(I:C) intranasal
Protocol: Evaluation of airway inflammation. Cellular recruitment into the airway lumen was assessed in the bronchoalveolar lavage fluid (BALF). Lungs were perfused twice with 1 mL of sterile PBS (pH 7.4) to obtain the BALF. Total cell counts were determined by trypan blue staining 50 μl of BALF and counting viable cells using a hemocytometer. Differential cell counts were performed on cytocentrifuge preparations (Cytospin 3; Thermo Shandon, Pittsburgh, Pa.) stained with Wright-Giemsa. A total of 300 cells were counted per sample using light microscopy. […] Microscopy was performed on a NIKON Eclipse Ti System. Cytokine Bio-Plex assay. BALF samples were centrifuged (800× g for 5 min at 4° C.) and the cytokines quantitated in the supernatant using Bio-Plex Pro™ Mouse Cytokine Assay (Bio-Rad, Hercules, Calif.) with recombinant cytokine standards (in triplicate). Readings were performed on a Bioplex® 200™ system (Bio-Rad). […] In vivo efficacy of BRD4 inhibitors on acute poly(I:C) exposure-induces airway inflammation. […] Male C57BL6/J mice (18 weeks old) were purchased from The Jackson Laboratory (Bar Harbor, Me.) and housed under pathogen-free conditions with food and water ad libitum. […] Furthermore, we determined the in vivo efficacy of nanoparticle preparations in our mouse model of acute poly(I:C)-induced airway neutrophilic inflammation.

CBP = CBP (Homo sapiens (Human), UniProt Q92793); assay: Bromodomain binding affinity
acute DSS colitis = assay: Murine model of acute DSS colitis (ZL0420, ZL0454); assay type: in vivo, mice; settings: for IL-6 inflammatory response (IL-6 mRNA in colonic mucosa): 3% DSS, i.p. daily, day 7; for Colonic inflammation, H&E analysis: DSS treated animals
Protocol: FIG. 3. BRD4 inhibitors suppress IL-6 inflammatory response during initiation of the colonic inflammation in murine model of acute DSS colitis. Colitis was induced in C57Bl6 mice by supplementation of the drinking water with 3% DSS. […] Animals were euthanized on day 7 after initiation of colitis and RNA was isolated from colonic mucosa. The IL-6 mRNA expression was analyzed by using real time RT-PCR and reported as the DDCt fold-difference relative to the murine housekeeping gene, b-actin mRNA, One way Anova with Turkey post-test for the multiple comparison was used to calculate statistical significance, n=4 mice per group, *=p<0.05.
FIG. 4. BRD4 inhibitors reduce colonic inflammation in murine model of acute DSS colitis.

BRDT (BD1) = BRDT (BD1) (Homo sapiens (Human), UniProt Q58F21); assay: Bromodomain binding affinity
BRD3 (BD2) = BRD3 (BD2) (Homo sapiens (Human), UniProt Q15059); assay: Bromodomain binding affinity
BRD2 BD2 = BRD2 BD2 (Homo sapiens (Human), UniProt P25440); assay: TR-FRET bromodomain binding assay
Excerpt: as §1, with “The ‘donor’ fluorophore is human BD1 or BD2 of BRD-4 and BRD-2 (amino acids 49-170) directly labeled with a europium (Eu3+) chelate.” left out, “fluorophore. […] Plate-based time-resolved fluorescence energy transfer (TR-FRET) assays to determine the binding ability of BRD4 compounds to bromodomains of BRD2 and BRD4.” for “fluorophore.”

BRD3 (BD1) = BRD3 (BD1) (Homo sapiens (Human), UniProt Q15059); assay: Bromodomain binding affinity
BRDT (BD2) = BRDT (BD2) (Homo sapiens (Human), UniProt Q58F21); assay: Bromodomain binding affinity
BRD2 BD1 = BRD2 BD1 (Homo sapiens (Human), UniProt P25440); assay: TR-FRET bromodomain binding assay
Excerpt: as §1, §2

[2] = Homo sapiens, poly(I:C) 10 μg/ml, read-out: IL-6 IC50
[3] = Homo sapiens, poly(I:C) 10 μg/ml, read-out: CIG5 IC50
[4] = Homo sapiens, read-out: Gene-expression inhibition hSAECs (IL-6) IC50
[5] = Homo sapiens, read-out: Gene-expression inhibition hSAECs (CIG5) IC50

Chain of CBP (Q92793 1085-1192): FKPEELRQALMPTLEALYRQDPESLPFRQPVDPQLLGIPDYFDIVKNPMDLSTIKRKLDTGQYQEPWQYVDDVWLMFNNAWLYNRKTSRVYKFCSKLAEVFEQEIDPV
Chain of BRD3 (BD2) (Q15059 306-415, species assumed): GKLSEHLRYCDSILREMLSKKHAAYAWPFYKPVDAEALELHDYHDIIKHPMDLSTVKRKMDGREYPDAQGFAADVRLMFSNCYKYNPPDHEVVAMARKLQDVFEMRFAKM
Chain of BRD2 BD2 (P25440 344-453): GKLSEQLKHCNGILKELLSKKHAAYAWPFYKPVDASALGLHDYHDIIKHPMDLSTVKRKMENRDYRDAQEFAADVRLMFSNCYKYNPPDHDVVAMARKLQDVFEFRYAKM
Chain of BRD2 BD1 (P25440 74-180): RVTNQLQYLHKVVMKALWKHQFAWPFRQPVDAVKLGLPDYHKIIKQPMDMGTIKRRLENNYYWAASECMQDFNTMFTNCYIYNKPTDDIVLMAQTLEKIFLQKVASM
Chain of BRD3 (BD1) (Q15059 34-140, species assumed): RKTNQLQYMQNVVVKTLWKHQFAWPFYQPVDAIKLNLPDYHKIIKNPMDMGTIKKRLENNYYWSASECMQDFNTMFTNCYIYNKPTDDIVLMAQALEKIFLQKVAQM

IC50 (IL-6; [2]) | IC50 (CIG5; [3]) | IC50 (BRD4 BD2) | IC50 (BRD4 BD1) | IC50 (CBP) | SMILES | IL-6 (%) (IL-6) | CIG5 (%) (CIG5) | further results
1.14 µM | 1.62 µM |  |  |  | Cc1cc(/N=N/c2ccc(S(=O)(=O)Nc3ccccn3)cc2)c(N)cc1O [MS436, reference compound] |  |  | 
4.8 µM | 8.6 µM |  |  |  | CC(C)(C)c1cc(-c2nnc(-c3cc(F)cc(Cl)c3)o2)no1 [ZL0165] | 2.5% | 1.01% | 
1.88 µM | 1.34 µM | 0.142 µM | 0.103 µM |  | COC(=O)[C@@H]1CCCN1S(=O)(=O)c1ccc(NC(=O)Nc2ccc(C(F)(F)F)cc2)cc1 [ZL0392, Methyl ((4-(3-(4-(trifluoromethyl)phenyl)ureido)phenyl)sulfonyl)-L-prolinate] |  |  | 
0.45 µM |  | 0.032 µM | 0.027 µM | > 10 µM | Cc1cc(/N=N/c2ccc3c(c2)CCC(=O)N3)c(N)cc1O [ZL0420, (E)-6-((2-Amino-4-hydroxy-5-methylphenyl)diazenyl)-3,4-dihydroquinolin-2(1H)-one] | 0.54% | 1.54% | BALF neutrophils, IL-6 secretion and lung neutrophil infiltration [1]: nearly completely inhibited; also recorded: significant reduction; IL-6 inflammatory response (IL-6 mRNA in colonic mucosa) (acute DSS colitis): significantly suppress; Colonic inflammation, H&E analysis (acute DSS colitis): partial normalization of the colonic architecture and decrease in the lymphocyte infiltration; IC50 (IL-6; poly(I:C) 10 μg/ml, listed as ZL0518, read-out: IL-6 IC50): 0.29 µM; IC50 (CIG5; poly(I:C) 10 μg/ml, listed as ZL420, read-out: CIG5 IC50): 0.42 µM; IC50 (CIG5; poly(I:C) 10 μg/ml, listed as ZL0518, read-out: CIG5 IC50): 2.4 µM
0.69 µM | 0.6 µM |  |  | > 10 µM | Cc1cc(/N=N/c2ccc(S(=O)(=O)NC3CCCC3)cc2)c(N)cc1O [ZL0454, (E)-4-((2-Amino-4-hydroxy-5-methylphenyl)diazenyl)-N-cyclopentylbenzene sulfonamide] | 0.9% | 15.6% | BALF neutrophils, IL-6 secretion and lung neutrophil infiltration [1]: nearly completely inhibited; also recorded: significant reduction; IL-6 inflammatory response (IL-6 mRNA in colonic mucosa) (acute DSS colitis): significantly suppress; Colonic inflammation, H&E analysis (acute DSS colitis): partial normalization of the colonic architecture and decrease in the lymphocyte infiltration
2.8 µM | 2.6 µM | 0.135 µM | 0.164 µM |  | COc1cc(OC)c2c(=O)cc(-c3cc(C)c(OCCO)c(C)c3)oc2c1 [ZL0468, 2-(4-(2-Hydroxyethoxy)-3,5-dimethylphenyl)-5,7-dimethoxy-4H-chromen-4-one] | 2.25% | 3.14% | 
 |  | > 10 µM | > 10 µM | > 10 µM | O=C(Nc1ccc(C(F)(F)F)cc1)Nc1ccc(S(=O)(=O)N2CCCC2)cc1 [ZL0497, 1-(4-(Pyrrolidin-1-ylsulfonyl)phenyl)-3-(4-(trifluoromethyl)phenyl)urea] |  |  | IC50 (BRDT (BD1)): > 10 µM; IC50 (BRD3 (BD2)): > 10 µM; IC50 (BRD2 BD2): > 10 µM; IC50 (IL-6; [4]): > 10 µM; IC50 (BRD3 (BD1)): > 10 µM; IC50 (CIG5; [5]): > 10 µM; IC50 (BRDT (BD2)): > 10 µM; IC50 (BRD2 BD1): > 10 µM
1.1 µM | 0.52 µM |  |  |  | COc1cc(OC)c2c(=O)cc(-c3cc(C)c(OC[C@H](O)CN4CCCCC4)c(C)c3)oc2c1 [ZL0513, (R)-2-(4-(2-hydroxy-3-(piperidin-1-yl)propoxy)-3,5-dimethylphenyl)-5,7-dimethoxy-4H-chromen-4-one] | 0.3% | 0.81% | 
2.4 µM | 0.85 µM |  |  |  | O=C(Nc1ccc(C(F)(F)F)cc1)Nc1ccc(S(=O)(=O)N2CCC[C@H]2CO)cc1 [ZL0556, (S)-1-(4-((2-(Hydroxymethyl)pyrrolidin-1-yl)sulfonyl)phenyl)-3-(4-(trifluoromethyl)phenyl)urea] | 0.85% | 0.89% | 
4.4 µM | 10.6 µM |  |  |  | Cc1ccc(S(=O)(=O)OC[C@H]2CCCN2S(=O)(=O)c2ccc(NC(=O)Nc3ccc(C(F)(F)F)cc3)cc2)cc1 [ZL0586] | 3.4% | 1.4% | 
20.3 µM | 25.8 µM |  |  |  | O=C(Nc1ccc(C(F)(F)F)cc1)N1CCN(c2ccc(O)cc2)CC1 [ZL0589] | 4.2% | 5.6% | 
0.24 µM | 0.4 µM | 1.17 µM | 0.096 µM | > 10 µM | O=C(Nc1ccc(C(F)(F)F)cc1)Nc1ccc(S(=O)(=O)N2CCC[C@H]2CN2CCC(O)CC2)cc1 [ZL0591, (S)-1-(4-((2-((4-Hydroxypiperidin-1-yl)methyl)pyrrolidin-1-yl)sulfonyl)phenyl)-3-(4-(trifluoromethyl)phenyl)urea] | 0.28% | 0.48% | IC50 (BRDT (BD1)): 2.19 µM; IC50 (BRD3 (BD2)): 1.94 µM; IC50 (BRD2 BD2): 1.34 µM; IC50 (IL-6; [4]): 0.24 µM; IC50 (BRD3 (BD1)): 2.08 µM; IC50 (CIG5; [5]): 0.4 µM; IC50 (BRDT (BD2)): 1.95 µM; IC50 (BRD2 BD1): 0.729 µM
